The values that follow come from ChEMBL document CHEMBL1134157, “General synthesis of alpha-substituted 3-bisaryloxy propionic acid derivatives as specific MMP inhibitors” (Bioorg Med Chem Lett, 2001).

SMILES strings stand for the structures.

The subject of the first data set is Homo sapiens. Kind of data set: […] absorption in Caco-2 cell line monolayers was determined. The data set is classed as ADME.
Conditions: not given
Take `O=C(NO)C(CCn1nnc2ccccc2c1=O)COc1ccc(-c2ccc(Cl)cc2)cc1` (stereo not drawn): the A amounted to 75%.

The compound `N#Cc1ccc(-c2ccc(OCC(CCn3nnc4ccccc4c3=O)C(=O)NO)cc2)cc1` (stereo not drawn) had an A of 96%.

`O=C(NO)C(CCn1nnc2ccccc2c1=O)COc1ccc(-c2ccccc2)cc1` (stereo not drawn) registered an A of 80%.

Test system in a further data set: not listed separately
Kind of data set: Metabolic bioavailability was determined. The data set is classed as ADME, organism-based. The settings on record: in vivo.
In turn, `O=C(NO)C(CCn1nnc2ccccc2c1=O)COCCc1ccc(-c2ccc(Cl)cc2)cc1` (stereo not drawn) registered an MF of 23%.

In turn, `O=C(NO)C(CCn1c(=O)[nH]c2ccccc2c1=O)COc1ccc(-c2ccccc2)cc1` (stereo not drawn) had an MF of 52%.

`O=C(NO)C(CCn1ncc2ccccc2c1=O)COc1ccc(-c2ccccc2)cc1` (stereo not drawn) displayed an MF of 13%.

Take `O=C(NO)C(CCN1C(=O)c2ccccc2S1(=O)=O)COc1ccc(-c2ccccc2)cc1` (stereo not drawn): the MF was found to be 30%.

As for `O=C(NO)C(CCn1nnc2ccccc2c1=O)COc1ccc(-c2ccc(Cl)cc2)cc1` (stereo not drawn), the MF is recorded as 35%.

Turning to `N#Cc1ccc(-c2ccc(OCC(CCn3nnc4ccccc4c3=O)C(=O)NO)cc2)cc1` (stereo not drawn), the MF was found to be 42%.

Take `CN1C(=O)N(CCC(COc2ccc(-c3ccccc3)cc2)C(=O)NO)C(=O)C1(C)C` (stereo not drawn): the MF is recorded as 17%.

With `O=C(NO)C(CCn1nnc2ccccc2c1=O)COc1ccc(-c2ccccc2)cc1` (stereo not drawn), the MF is recorded as 29%.

Another data set deals with Stromelysin-1 (Homo sapiens, UniProt P08254). As to the kind of experiment: Inhibition of Matrix metalloprotease-3.
Chain of Stromelysin-1 (P08254 whole entry): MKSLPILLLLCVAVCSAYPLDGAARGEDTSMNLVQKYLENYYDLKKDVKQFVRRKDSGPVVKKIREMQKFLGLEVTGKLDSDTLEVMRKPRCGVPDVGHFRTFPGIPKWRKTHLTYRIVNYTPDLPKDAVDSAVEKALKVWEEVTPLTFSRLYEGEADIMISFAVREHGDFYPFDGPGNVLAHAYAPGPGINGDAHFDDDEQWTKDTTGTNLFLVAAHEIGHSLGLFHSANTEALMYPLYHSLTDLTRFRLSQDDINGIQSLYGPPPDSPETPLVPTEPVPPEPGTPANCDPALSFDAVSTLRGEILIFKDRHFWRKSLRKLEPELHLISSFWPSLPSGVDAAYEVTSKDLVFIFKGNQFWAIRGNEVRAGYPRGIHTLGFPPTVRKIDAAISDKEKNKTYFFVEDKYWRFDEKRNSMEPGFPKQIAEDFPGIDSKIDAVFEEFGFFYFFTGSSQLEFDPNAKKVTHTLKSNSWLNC
Conditions: not given
Take `O=C(NO)C(CCn1nnc2ccccc2c1=O)COCCc1ccc(-c2ccc(Cl)cc2)cc1` (stereo not drawn): the IC50 turned out to be 4.3 nM.

The compound `O=C(NO)C(CCn1c(=O)[nH]c2ccccc2c1=O)COc1ccc(-c2ccccc2)cc1` (stereo not drawn) displayed an IC50 of 69 nM.

For the compound `O=C(NO)C(CCN1C(=O)c2ccccc2C1=O)COc1ccc(-c2ccccc2)cc1` (stereo not drawn), inhibition was half-maximal at 16 nM (IC50).

Compound `O=C(NO)C(CCn1ncc2ccccc2c1=O)COc1ccc(-c2ccccc2)cc1` (stereo not drawn) displayed an IC50 of 62 nM.

`O=C(NO)C(CCN1C(=O)c2ccccc2S1(=O)=O)COc1ccc(-c2ccccc2)cc1` (stereo not drawn) gave an IC50 of 23 nM.

Take `O=C(NO)C(CCn1nnc2ccccc2c1=O)COc1ccc(-c2ccc(Cl)cc2)cc1` (stereo not drawn): the IC50 came out at 3.2 nM.

`N#Cc1ccc(-c2ccc(OCC(CCn3nnc4ccccc4c3=O)C(=O)NO)cc2)cc1` (stereo not drawn) displayed an IC50 of 1.1 nM.

With `O=C(NO)C(CCCN1C(=O)c2ccccc2C1=O)COc1ccc(-c2ccccc2)cc1` (stereo not drawn), half-maximal inhibition (IC50) required 313 nM.

For `CN1C(=O)N(CCC(COc2ccc(-c3ccccc3)cc2)C(=O)NO)C(=O)C1(C)C` (stereo not drawn), the IC50 came to 71 nM.

Compound `O=C(NO)C(CCn1nnc2ccccc2c1=O)COc1ccc(-c2ccccc2)cc1` (stereo not drawn) showed an IC50 of 5 nM.

Consider `N#Cc1ccc(-c2ccc(OCCC(=O)NO)cc2)cc1`, for which the IC50 was 47 nM.

The target in another data set is T1, Interstitial collagenase (Homo sapiens, UniProt P03956).
T1 sequence (P03956 whole entry): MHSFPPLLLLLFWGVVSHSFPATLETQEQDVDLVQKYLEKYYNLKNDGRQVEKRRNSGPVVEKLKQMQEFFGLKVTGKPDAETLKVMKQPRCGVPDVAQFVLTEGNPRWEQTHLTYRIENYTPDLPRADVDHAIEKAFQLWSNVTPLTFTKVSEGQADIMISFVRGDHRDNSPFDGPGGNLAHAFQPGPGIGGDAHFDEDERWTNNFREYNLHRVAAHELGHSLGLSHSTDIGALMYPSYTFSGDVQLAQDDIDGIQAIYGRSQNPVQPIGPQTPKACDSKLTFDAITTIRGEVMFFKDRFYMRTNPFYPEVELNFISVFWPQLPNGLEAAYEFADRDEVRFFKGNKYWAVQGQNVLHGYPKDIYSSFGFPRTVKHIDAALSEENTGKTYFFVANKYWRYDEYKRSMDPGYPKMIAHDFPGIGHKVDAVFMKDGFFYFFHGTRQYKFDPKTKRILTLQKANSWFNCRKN
As to the kind of experiment: Inhibition ofMatrix metalloprotease-1.
Conditions: not given
In turn, `CN1C(=O)N(CCC(COc2ccc(-c3ccccc3)cc2)C(=O)NO)C(=O)C1(C)C` (stereo not drawn) showed an IC50 of over 1000 nM.

The target of a further data set is T1, Interstitial collagenase. Kind of data set: Inhibition of Matrix metalloprotease-1.
Conditions: not given
Compound `O=C(NO)C(CCN1C(=O)c2ccccc2C1=O)COc1ccc(-c2ccccc2)cc1` (stereo not drawn) registered an IC50 of 768 nM.

Consider `O=C(NO)C(CCn1ncc2ccccc2c1=O)COc1ccc(-c2ccccc2)cc1` (stereo not drawn), for which the concentration for half-maximal inhibition (IC50) is over 10000 nM.

Take `O=C(NO)C(CCN1C(=O)c2ccccc2S1(=O)=O)COc1ccc(-c2ccccc2)cc1` (stereo not drawn): the IC50 was over 100000 nM.

Turning to `O=C(NO)C(CCn1nnc2ccccc2c1=O)COc1ccc(-c2ccc(Cl)cc2)cc1` (stereo not drawn), it took 74 nM to reach half-maximal inhibition (IC50).

`N#Cc1ccc(-c2ccc(OCC(CCn3nnc4ccccc4c3=O)C(=O)NO)cc2)cc1` (stereo not drawn) registered an IC50 of 116 nM.

The compound `O=C(NO)C(CCCN1C(=O)c2ccccc2C1=O)COc1ccc(-c2ccccc2)cc1` (stereo not drawn) gave an IC50 of over 1000 nM.

For `O=C(NO)C(CCn1nnc2ccccc2c1=O)COc1ccc(-c2ccccc2)cc1` (stereo not drawn), the IC50 worked out at 31 nM.

`N#Cc1ccc(-c2ccc(OCCC(=O)NO)cc2)cc1` came in with an IC50 of over 10 nM.

The target of another data set is Matrix metalloproteinase-9 (Homo sapiens, UniProt P14780). As to the kind of experiment: Inhibition of Matrix metalloprotease-9.
Chain of Matrix metalloproteinase-9 (P14780 whole entry): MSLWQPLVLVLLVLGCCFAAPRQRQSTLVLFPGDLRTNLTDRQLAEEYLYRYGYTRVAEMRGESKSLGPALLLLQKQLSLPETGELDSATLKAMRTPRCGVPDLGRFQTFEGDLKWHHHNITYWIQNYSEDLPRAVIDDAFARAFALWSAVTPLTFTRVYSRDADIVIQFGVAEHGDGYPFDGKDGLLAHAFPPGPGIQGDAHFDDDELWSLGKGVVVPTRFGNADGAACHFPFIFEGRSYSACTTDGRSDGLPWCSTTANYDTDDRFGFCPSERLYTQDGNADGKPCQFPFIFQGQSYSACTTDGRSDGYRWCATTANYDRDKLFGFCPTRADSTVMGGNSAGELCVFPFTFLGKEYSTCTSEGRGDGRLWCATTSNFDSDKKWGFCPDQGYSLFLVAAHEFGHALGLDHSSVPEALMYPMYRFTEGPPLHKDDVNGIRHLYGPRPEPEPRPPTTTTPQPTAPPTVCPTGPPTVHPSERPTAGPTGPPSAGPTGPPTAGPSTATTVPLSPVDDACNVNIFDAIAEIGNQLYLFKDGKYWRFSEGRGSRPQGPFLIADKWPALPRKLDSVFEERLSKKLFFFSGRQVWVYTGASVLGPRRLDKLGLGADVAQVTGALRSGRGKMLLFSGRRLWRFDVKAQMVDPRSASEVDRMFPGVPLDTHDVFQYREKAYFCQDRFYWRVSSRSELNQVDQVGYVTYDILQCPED
Conditions: not given
`O=C(NO)C(CCn1nnc2ccccc2c1=O)COCCc1ccc(-c2ccc(Cl)cc2)cc1` (stereo not drawn) gave an IC50 of 3.6 nM.

On to `O=C(NO)C(CCn1c(=O)[nH]c2ccccc2c1=O)COc1ccc(-c2ccccc2)cc1` (stereo not drawn), for which half-maximal inhibition (IC50) was put at 25 nM.

`O=C(NO)C(CCN1C(=O)c2ccccc2C1=O)COc1ccc(-c2ccccc2)cc1` (stereo not drawn) gave an IC50 of 5 nM.

`O=C(NO)C(CCn1ncc2ccccc2c1=O)COc1ccc(-c2ccccc2)cc1` (stereo not drawn) registered an IC50 of 33 nM.

Compound `O=C(NO)C(CCN1C(=O)c2ccccc2S1(=O)=O)COc1ccc(-c2ccccc2)cc1` (stereo not drawn) had an IC50 of 16 nM.

`O=C(NO)C(CCn1nnc2ccccc2c1=O)COc1ccc(-c2ccc(Cl)cc2)cc1` (stereo not drawn) came in with an IC50 of 0.6 nM.

Regarding `N#Cc1ccc(-c2ccc(OCC(CCn3nnc4ccccc4c3=O)C(=O)NO)cc2)cc1` (stereo not drawn), it took 0.6 nM to reach half-maximal inhibition (IC50).

In turn, `O=C(NO)C(CCCN1C(=O)c2ccccc2C1=O)COc1ccc(-c2ccccc2)cc1` (stereo not drawn) gave an IC50 of 221 nM.

`CN1C(=O)N(CCC(COc2ccc(-c3ccccc3)cc2)C(=O)NO)C(=O)C1(C)C` (stereo not drawn) yielded an IC50 of 199 nM.

As to `O=C(NO)C(CCn1nnc2ccccc2c1=O)COc1ccc(-c2ccccc2)cc1` (stereo not drawn), the IC50 turned out to be 1 nM.

Compound `N#Cc1ccc(-c2ccc(OCCC(=O)NO)cc2)cc1` came in with an IC50 of 655 nM.

In another data set the target is 72 kDa type IV collagenase (Homo sapiens, UniProt P08253). Kind of data set: Inhibition of Matrix metalloprotease-2.
Chain of 72 kDa type IV collagenase (P08253 whole entry): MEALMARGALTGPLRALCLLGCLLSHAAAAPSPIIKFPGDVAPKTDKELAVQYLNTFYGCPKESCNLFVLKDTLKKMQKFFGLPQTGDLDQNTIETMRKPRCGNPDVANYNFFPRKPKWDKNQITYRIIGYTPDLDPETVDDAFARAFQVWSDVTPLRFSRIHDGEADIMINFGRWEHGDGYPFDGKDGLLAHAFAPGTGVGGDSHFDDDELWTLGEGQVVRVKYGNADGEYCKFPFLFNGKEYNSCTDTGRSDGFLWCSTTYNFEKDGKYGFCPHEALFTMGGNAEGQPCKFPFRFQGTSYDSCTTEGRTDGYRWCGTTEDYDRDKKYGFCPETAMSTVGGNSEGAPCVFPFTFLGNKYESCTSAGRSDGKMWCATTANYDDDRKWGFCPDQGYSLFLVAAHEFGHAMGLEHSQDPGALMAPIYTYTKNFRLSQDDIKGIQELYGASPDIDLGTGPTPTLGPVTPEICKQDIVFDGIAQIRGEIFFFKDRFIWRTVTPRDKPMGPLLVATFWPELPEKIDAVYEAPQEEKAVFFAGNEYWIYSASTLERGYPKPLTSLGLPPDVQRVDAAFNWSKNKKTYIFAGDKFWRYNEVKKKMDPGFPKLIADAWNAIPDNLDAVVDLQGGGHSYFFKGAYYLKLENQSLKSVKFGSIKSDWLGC
Conditions: not given
With `O=C(NO)C(CCn1nnc2ccccc2c1=O)COCCc1ccc(-c2ccc(Cl)cc2)cc1` (stereo not drawn), the IC50 stood at 25 nM.

Consider `O=C(NO)C(CCn1c(=O)[nH]c2ccccc2c1=O)COc1ccc(-c2ccccc2)cc1` (stereo not drawn), for which half-maximal inhibition (IC50) was put at 24 nM.

Regarding `O=C(NO)C(CCN1C(=O)c2ccccc2C1=O)COc1ccc(-c2ccccc2)cc1` (stereo not drawn), half-maximal inhibition (IC50) required 3 nM.

`O=C(NO)C(CCn1ncc2ccccc2c1=O)COc1ccc(-c2ccccc2)cc1` (stereo not drawn) had an IC50 of 6 nM.

Take `O=C(NO)C(CCN1C(=O)c2ccccc2S1(=O)=O)COc1ccc(-c2ccccc2)cc1` (stereo not drawn): 7 nM corresponded to half-maximal inhibition (IC50).

The compound `O=C(NO)C(CCn1nnc2ccccc2c1=O)COc1ccc(-c2ccc(Cl)cc2)cc1` (stereo not drawn) had an IC50 of 0.1 nM.

Compound `N#Cc1ccc(-c2ccc(OCC(CCn3nnc4ccccc4c3=O)C(=O)NO)cc2)cc1` (stereo not drawn) yielded an IC50 of 0.4 nM.

The compound `O=C(NO)C(CCCN1C(=O)c2ccccc2C1=O)COc1ccc(-c2ccccc2)cc1` (stereo not drawn) had an IC50 of 82 nM.

Regarding `CN1C(=O)N(CCC(COc2ccc(-c3ccccc3)cc2)C(=O)NO)C(=O)C1(C)C` (stereo not drawn), the IC50 is 36 nM.

Compound `O=C(NO)C(CCn1nnc2ccccc2c1=O)COc1ccc(-c2ccccc2)cc1` (stereo not drawn) returned an IC50 of 0.5 nM.

Compound `N#Cc1ccc(-c2ccc(OCCC(=O)NO)cc2)cc1` came in with a half-maximal inhibitory concentration (IC50) of 49 nM.

For a further data set, the target named is Collagenase 3 (Homo sapiens, UniProt P45452). Kind of data set: Inhibition of Matrix metalloprotease-13.
Conditions: not given
In turn, `O=C(NO)C(CCn1nnc2ccccc2c1=O)COCCc1ccc(-c2ccc(Cl)cc2)cc1` (stereo not drawn) registered an IC50 of 67 nM.

Turning to `O=C(NO)C(CCn1c(=O)[nH]c2ccccc2c1=O)COc1ccc(-c2ccccc2)cc1` (stereo not drawn), the IC50 came to 65 nM.

In turn, `O=C(NO)C(CCN1C(=O)c2ccccc2C1=O)COc1ccc(-c2ccccc2)cc1` (stereo not drawn) returned a 50% inhibitory concentration (IC50) of 7 nM.

Regarding `O=C(NO)C(CCn1ncc2ccccc2c1=O)COc1ccc(-c2ccccc2)cc1` (stereo not drawn), half-maximal inhibition (IC50) was put at 101 nM.

For `O=C(NO)C(CCN1C(=O)c2ccccc2S1(=O)=O)COc1ccc(-c2ccccc2)cc1` (stereo not drawn), the IC50 is 42 nM.

Compound `O=C(NO)C(CCn1nnc2ccccc2c1=O)COc1ccc(-c2ccc(Cl)cc2)cc1` (stereo not drawn) registered an IC50 of 0.016 nM.

With `N#Cc1ccc(-c2ccc(OCC(CCn3nnc4ccccc4c3=O)C(=O)NO)cc2)cc1` (stereo not drawn), the IC50 stood at 0.6 nM.

Compound `CN1C(=O)N(CCC(COc2ccc(-c3ccccc3)cc2)C(=O)NO)C(=O)C1(C)C` (stereo not drawn) displayed an IC50 of 84 nM.

The compound `O=C(NO)C(CCn1nnc2ccccc2c1=O)COc1ccc(-c2ccccc2)cc1` (stereo not drawn) yielded an IC50 of 3 nM.

`N#Cc1ccc(-c2ccc(OCCC(=O)NO)cc2)cc1` registered an IC50 of 64 nM.
